“Also recorded” adds a separate entry of the source.
System: Punta Toro virus, yellow fever virus or Sindbis virus
Type: cell-based

SMILES	antiviral activity (in words)
O=C(NN1C(=O)CSC12CCCCC2)c1[nH]c2ccc(Cl)cc2c1-c1ccccc1 [Compound 4b, 5-Chloro-N-(3-oxo-1-thia-4-azaspiro[4.5]decan-4-yl)-3-phenyl-1H-indole-2-carboxamide]	moderately active; also recorded: inhibitory effect
CC1CCCC2(C1)SCC(=O)N2NC(=O)c1[nH]c2ccc(Cl)cc2c1-c1ccccc1 (stereo not drawn) [Compound 4c, 5-Chloro-N-(7-methyl-3-oxo-1-thia-4-azaspiro[4.5]decan-4-yl)-3-phenyl-1H-indole-2-carboxamide]	moderately active; also recorded: inhibitory effect
CC1SC2(CCCCC2)N(NC(=O)c2[nH]c3ccc(Cl)cc3c2-c2ccccc2)C1=O (stereo not drawn) [Compound 5b, 5-Chloro-N-(2-methyl-3-oxo-1-thia-4-azaspiro[4.5]decan-4-yl)-3-phenyl-1H-indole-2-carboxamide]	moderately active; also recorded: inhibitory effect
CC1CCC2(CC1)SC(C)C(=O)N2NC(=O)c1[nH]c2ccc(Cl)cc2c1-c1ccccc1 (stereo not drawn) [Compound 5d, 5-Chloro-N-(2,8-dimethyl-3-oxo-1-thia-4-azaspiro[4.5]decan-4-yl)-3-phenyl-1H-indole-2-carboxamide]	moderately active; also recorded: inhibitory effect

System: variety of DNA and RNA viruses
Type: cell-based

SMILES	antiviral activity (in words)
O=C(NN1C(=O)CSC12CCCC2)c1[nH]c2ccc(Cl)cc2c1-c1ccccc1 [Compound 4a, 5-Chloro-N-(3-oxo-1-thia-4-azaspiro[4.4]nonan-4-yl)-3-phenyl-1H-indole-2-carboxamide]	no antiviral activity
CC1SC2(CCCC2)N(NC(=O)c2[nH]c3ccc(Cl)cc3c2-c2ccccc2)C1=O (stereo not drawn) [Compound 5a, 5-Chloro-N-(2-methyl-3-oxo-1-thia-4-azaspiro[4.4]nonan-4-yl)-3-phenyl-1H-indole-2-carboxamide]	no antiviral activity
